Data reported in patent US20240158446A1, “CYCLIC COMPOUND HAVING SELECTIVE INHIBITORY ACTION ON KRAS OVER HRAS AND NRAS” (CHUGAI SEIYAKU KABUSHIKI KAISHA, priority 2021, published 2024).

Columns and labels:
[1] = target: GDP-bound HRAS wild-type protein (Homo sapiens, UniProt P01112); assay: Binding to HRAS by surface plasmon resonance (SPR), Single Cycle Kinetics; details: SPR KD ratio HRAS/KRAS, class symbols
[2] = target: GDP-bound NRAS wild-type protein (Homo sapiens, UniProt P01111); assay: Binding to NRAS by surface plasmon resonance (SPR), Single Cycle Kinetics; details: SPR KD ratio NRAS/KRAS, class symbols
Sequence of GDP-bound NRAS wild-type protein (P01111 whole entry): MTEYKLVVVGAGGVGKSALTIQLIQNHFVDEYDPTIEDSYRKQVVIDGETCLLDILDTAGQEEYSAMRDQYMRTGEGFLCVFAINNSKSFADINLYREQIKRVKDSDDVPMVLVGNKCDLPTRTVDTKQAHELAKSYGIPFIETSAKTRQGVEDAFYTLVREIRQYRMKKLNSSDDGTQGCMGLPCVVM

[3] = target: GDP-bound KRAS wild-type protein (Homo sapiens, UniProt P01116); assay: Binding to KRAS by surface plasmon resonance (SPR), Single Cycle Kinetics; details: SPR Single Cycle Kinetics, GDP-bound KRAS wild-type protein, 1:1 binding model; read-out: KRAS KD
Sequence of GDP-bound KRAS wild-type protein (P01116 whole entry): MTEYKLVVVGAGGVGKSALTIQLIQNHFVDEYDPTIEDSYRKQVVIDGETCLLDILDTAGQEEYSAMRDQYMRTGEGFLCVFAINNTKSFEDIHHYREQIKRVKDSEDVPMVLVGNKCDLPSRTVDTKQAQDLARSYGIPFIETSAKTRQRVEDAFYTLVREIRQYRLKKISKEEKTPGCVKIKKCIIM

Sequence of GDP-bound HRAS wild-type protein (P01112 whole entry): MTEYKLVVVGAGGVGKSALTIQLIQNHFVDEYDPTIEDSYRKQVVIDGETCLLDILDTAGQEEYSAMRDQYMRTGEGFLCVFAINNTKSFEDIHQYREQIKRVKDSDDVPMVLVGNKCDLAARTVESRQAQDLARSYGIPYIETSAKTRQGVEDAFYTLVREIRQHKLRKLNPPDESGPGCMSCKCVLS

| Structure (SMILES) | HRAS/KRAS (ratio of KD value with respect to GDP-bound HRAS wild-type protein to KD value with respect to KRAS) [1] | NRAS/KRAS (ratio of KD value with respect to GDP-bound NRAS wild-type protein to KD value with respect to KRAS) [2] | Kd [3] |
| --- | --- | --- | --- |
| CCO[C@@H]1C[C@H]2C(=O)NC3(CCC3)C(=O)N(C)[C@@H](C3CCCC3)C(=O)N(C)[C@H](C(=O)N(C)C)CC(=O)N(C)[C@@H](CC3CCCC3)C(=O)N[C@@H]([C@@H](C)CC)C(=O)N(C)CC(=O)N(C)[C@H]3C/C=C\CCN(C3=O)[C@@H](Cc3ccc(C)cc3)C(=O)N(C)CC(=O)N[C@@H](CCc3cc(C)c(C(F)F)c(C)c3)C(=O)N2C1 [PP2675] | A (a compound having 10 or more and less than 20 is denoted as A) | A (a compound having 10 or more and less than 20 is denoted as A) | 4.5 nM |
| CCO[C@@H]1C[C@H]2C(=O)NC3(CCC3)C(=O)N(C)[C@@H](C3CCCC3)C(=O)N(C)[C@H](C(=O)N(C)C)CC(=O)N(C)[C@@H](CC3CCCC3)C(=O)N[C@@H]([C@@H](C)CC)C(=O)N(C)CC(=O)N(C)[C@H]3C/C=C\CCN(C3=O)[C@@H](Cc3ccc(C)cc3)C(=O)N(C)CC(=O)N[C@@H](CCc3cc(C)c(C(F)F)c(F)c3)C(=O)N2C1 [PP2676] | A (a compound having 10 or more and less than 20 is denoted as A) | A (a compound having 10 or more and less than 20 is denoted as A) | 0.87 nM |
| CCO[C@@H]1C[C@H]2C(=O)NC3(CCC3)C(=O)N(C)[C@@H](C3CCCC3)C(=O)N(C)[C@H](C(=O)N(C)C)CC(=O)N(C)[C@@H](CC3CCCC3)C(=O)N[C@@H]([C@@H](C)CC)C(=O)N(C)CC(=O)N(C)[C@H]3C/C=C\CCN(C3=O)[C@@H](Cc3ccc(C)cc3)C(=O)N(C)CC(=O)N[C@@H](CCc3cc(C)c(C(F)F)c(Cl)c3)C(=O)N2C1 [PP2677] | A (a compound having 10 or more and less than 20 is denoted as A) | A (a compound having 10 or more and less than 20 is denoted as A) | 1.3 nM |
| CCO[C@@H]1C[C@H]2C(=O)NC3(CCC3)C(=O)N(C)[C@@H](C3CCCC3)C(=O)N(C)[C@H](C(=O)N(C)C)CC(=O)N(C)[C@@H](CC3CCCC3)C(=O)N[C@@H]([C@@H](C)CC)C(=O)N(C)CC(=O)N(C)[C@H]3C/C=C\CCN(C3=O)[C@@H](Cc3ccc(C)cc3)C(=O)N(C)CC(=O)N[C@@H](CCc3cc(Cl)c(C(F)(F)F)c(Cl)c3)C(=O)N2C1 [PP2679] | A (a compound having 10 or more and less than 20 is denoted as A) | A (a compound having 10 or more and less than 20 is denoted as A) | 0.099 nM |
| CCO[C@@H]1C[C@H]2C(=O)NC3(CCC3)C(=O)N(C)[C@@H](C3CCCC3)C(=O)N(C)[C@H](C(=O)N(C)C)CC(=O)N(C)[C@@H](CC3CCCC3)C(=O)N[C@@H]([C@@H](C)CC)C(=O)N(C)CC(=O)N(C)[C@H]3C/C=C\CCN(C3=O)[C@@H](Cc3ccc(C)cc3)C(=O)N(C)CC(=O)N[C@@H](CCc3ccc(C4CC4)c(F)c3)C(=O)N2C1 [PP2683] | A (a compound having 10 or more and less than 20 is denoted as A) | A (a compound having 10 or more and less than 20 is denoted as A) | 0.87 nM |
| CCO[C@@H]1C[C@H]2C(=O)NC3(CCC3)C(=O)N(C)[C@@H](C3CCCC3)C(=O)N(C)[C@H](C(=O)N(C)C)CC(=O)N(C)[C@@H](CC3CCCC3)C(=O)N[C@@H]([C@@H](C)CC)C(=O)N(C)CC(=O)N(C)[C@H]3C/C=C\CCN(C3=O)[C@@H](Cc3ccc(C)cc3)C(=O)N(C)CC(=O)N[C@@H](CCc3ccc(C4CC4)c(C)c3)C(=O)N2C1 [PP2685] | A (a compound having 10 or more and less than 20 is denoted as A) | A (a compound having 10 or more and less than 20 is denoted as A) | 2.1 nM |
| CCO[C@@H]1C[C@H]2C(=O)NC3(CC(C)(C)C3)C(=O)N(C)[C@@H](CC3CCC3)C(=O)N(C)[C@H](C(=O)N(C)C)CC(=O)N(C)[C@@H](COC)C(=O)N[C@@H]([C@@H](C)CC)C(=O)N(C3CC3)CC(=O)N(C)[C@H]3C/C=C\CCN(C3=O)[C@@H](Cc3ccc(C(F)(F)F)cc3)C(=O)N(C)CC(=O)N[C@@H](CCc3cc(F)c(C(F)(F)F)c(F)c3)C(=O)N2C1 [PP2769] | A (a compound having 10 or more and less than 20 is denoted as A) | AA (a compound having 20 or more is denoted as AA) | 2.5 nM |
| CCC[C@H]1C(=O)N[C@@H]([C@@H](C)CC)C(=O)N(C2CC2)CC(=O)N(C)[C@H]2C/C=C\CCN(C2=O)[C@@H](Cc2ccc(C(F)(F)F)cc2)C(=O)N(C)CC(=O)N[C@@H](CCc2ccc(C(F)(F)F)c(OC)c2)C(=O)N2C[C@H](OCC)C[C@H]2C(=O)NC2(CC(C)(C)C2)C(=O)N(C)[C@@H](CC2CCC2)C(=O)N(C)[C@H](C(=O)N(C)C)CC(=O)N1C [PP2770] | A (a compound having 10 or more and less than 20 is denoted as A) | A (a compound having 10 or more and less than 20 is denoted as A) | 5 nM |
| CCO[C@@H]1C[C@H]2C(=O)NC3(CC(C)(C)C3)C(=O)N(C)[C@@H](CC3CCC3)C(=O)N(C)[C@H](C(=O)N(C)C)CC(=O)N(C)[C@@H](COC)C(=O)N[C@@H]([C@@H](C)CC)C(=O)N(C3CC3)CC(=O)N(C)[C@H]3C/C=C\CCN(C3=O)[C@@H](Cc3ccc(C(F)(F)F)cc3)C(=O)N(C)CC(=O)N[C@@H](CCc3ccc(C(F)(F)F)c(OC)c3)C(=O)N2C1 [PP2771] | A (a compound having 10 or more and less than 20 is denoted as A) | AA (a compound having 20 or more is denoted as AA) | 2.2 nM |
| CCO[C@@H]1C[C@H]2C(=O)NC3(CCC3)C(=O)N(C)[C@@H](CC(C)(C)C)C(=O)N(C)[C@H](C(=O)N3CCCC3)CC(=O)N(C)[C@@H](CC)C(=O)N[C@@H]([C@@H](C)CC)C(=O)N(C)CC(=O)N(C)[C@H]3C/C=C\CCN(C3=O)[C@@H](CC3CCCCC3)C(=O)N(C)CC(=O)N[C@@H](CCc3cc(F)c(C(F)(F)F)c(F)c3)C(=O)N2C1 [PP2772] | B (a compound having 3 or more and less than 10 is denoted as B) | B (a compound having 3 or more and less than 10 is denoted as B) | 0.43 nM |
| CCO[C@@H]1C[C@H]2C(=O)NC3(CC(C)(C)C3)C(=O)N(C)[C@@H](CC(C)(C)C)C(=O)N(C)[C@H](C(=O)N(C)C)CC(=O)N(C)[C@@H](C(C)C)C(=O)N[C@@H]([C@@H](C)CC)C(=O)N(C)CC(=O)N(C)[C@H]3C/C=C\CCN(C3=O)[C@@H](Cc3ccc(C(F)(F)F)cc3)C(=O)N(C)CC(=O)N[C@@H](CCc3ccc(C(F)(F)F)c(OC)c3)C(=O)N2C1 [PP2773] | B (a compound having 3 or more and less than 10 is denoted as B) | B (a compound having 3 or more and less than 10 is denoted as B) | 0.52 nM |
| CCC[C@H]1C(=O)N[C@@H]([C@@H](C)CC)C(=O)N(C)CC(=O)N(C)[C@H]2C/C=C\CCN(C2=O)[C@@H](Cc2ccc(C(F)(F)F)cc2)C(=O)N(C)CC(=O)N[C@@H](CCc2ccc(CC)c(Cl)c2)C(=O)N2C[C@H](OCC)C[C@H]2C(=O)NC2(CC(C)(C)C2)C(=O)N(C)[C@@H](C(CC)CC)C(=O)N(C)[C@H](C(=O)N(C)C)CC(=O)N1C [PP2777] | A (a compound having 10 or more and less than 20 is denoted as A) | AA (a compound having 20 or more is denoted as AA) | 2.4 nM |
| CCC[C@H]1C(=O)N[C@@H]([C@@H](C)CC)C(=O)N(C)CC(=O)N(C)[C@H]2C/C=C\CCN(C2=O)[C@@H](Cc2ccc(C)cc2)C(=O)N(C)CC(=O)N[C@@H](CCc2ccc(CC)c(Cl)c2)C(=O)N2C[C@H](OCC)C[C@H]2C(=O)NC2(CC(C)(C)C2)C(=O)N(C)[C@@H](C2CCCC2)C(=O)N(C)[C@H](C(=O)N(C)C)CC(=O)N1C [PP2778] | A (a compound having 10 or more and less than 20 is denoted as A) | A (a compound having 10 or more and less than 20 is denoted as A) | 0.62 nM |
| CCC[C@H]1C(=O)N[C@@H]([C@@H](C)CC)C(=O)N(C)CC(=O)N(C)[C@H]2C/C=C\CCN(C2=O)[C@@H](Cc2ccc(C(F)(F)F)cc2)C(=O)N(C)CC(=O)N[C@@H](CCc2cc(F)c(C(F)F)c(F)c2)C(=O)N2C[C@H](OCC)C[C@H]2C(=O)NC2(CC(C)(C)C2)C(=O)N(C)[C@@H](C2CCCC2)C(=O)N(C)[C@H](C(=O)N(C)C)CC(=O)N1C [PP2780] | A (a compound having 10 or more and less than 20 is denoted as A) | A (a compound having 10 or more and less than 20 is denoted as A) | 0.3 nM |
